{"source": "patent US6878804B1", "about": "“Synthesis of template-fixed β-hairpin loop mimetics” (University of Zurich, priority 1999, dated 2005)", "molecular_target": "platelet-derived growth factor β-receptor (PDGFR-β) (Homo sapiens, UniProt P09619)", "sequence (P09619 33-1106, species assumed)": "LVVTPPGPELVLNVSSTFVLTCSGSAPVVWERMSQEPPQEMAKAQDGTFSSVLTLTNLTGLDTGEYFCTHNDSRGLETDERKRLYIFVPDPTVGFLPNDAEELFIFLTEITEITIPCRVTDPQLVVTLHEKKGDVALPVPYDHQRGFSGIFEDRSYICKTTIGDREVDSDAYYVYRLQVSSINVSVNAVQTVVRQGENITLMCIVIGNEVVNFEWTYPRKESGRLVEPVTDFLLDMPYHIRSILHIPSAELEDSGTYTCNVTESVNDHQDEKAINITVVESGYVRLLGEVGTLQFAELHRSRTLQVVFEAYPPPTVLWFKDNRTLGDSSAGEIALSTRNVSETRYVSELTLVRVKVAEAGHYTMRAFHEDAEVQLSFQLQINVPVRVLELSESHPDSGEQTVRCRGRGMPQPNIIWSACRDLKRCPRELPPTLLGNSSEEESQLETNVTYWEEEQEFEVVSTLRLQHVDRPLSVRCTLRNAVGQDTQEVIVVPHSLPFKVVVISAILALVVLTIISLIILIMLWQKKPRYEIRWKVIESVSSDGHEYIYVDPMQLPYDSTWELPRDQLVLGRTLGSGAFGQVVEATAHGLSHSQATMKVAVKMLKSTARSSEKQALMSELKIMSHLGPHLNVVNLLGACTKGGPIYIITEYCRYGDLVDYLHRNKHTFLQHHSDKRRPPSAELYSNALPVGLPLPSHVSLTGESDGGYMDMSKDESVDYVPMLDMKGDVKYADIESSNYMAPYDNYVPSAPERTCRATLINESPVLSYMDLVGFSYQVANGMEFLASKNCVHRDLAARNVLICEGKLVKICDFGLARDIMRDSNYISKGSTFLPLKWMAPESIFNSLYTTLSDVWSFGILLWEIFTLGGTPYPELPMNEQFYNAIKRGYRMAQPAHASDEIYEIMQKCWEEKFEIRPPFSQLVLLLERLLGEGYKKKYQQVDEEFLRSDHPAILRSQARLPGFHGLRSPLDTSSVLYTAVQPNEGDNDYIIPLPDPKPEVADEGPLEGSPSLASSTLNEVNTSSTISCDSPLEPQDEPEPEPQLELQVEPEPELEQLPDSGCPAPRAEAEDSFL", "test": "Solid-phase assay: displacement of 125I-PDGF-BB from immobilized PDGFR-β", "format": "binding", "conditions": "competition with 125I-PDGF-BB, 3 h at room temperature, immobilized purified PDGFR-β; read-out: Assay I50", "method": "Direct immobilization of platelet-derived growth factor […] is performed by overnight incubation in immunosorbent 96-well plates (Nunc) at 4° C. using 100 ng of purified protein in 100 μl of 15 mM Na2CO3, 35 mM NaHCO3, pH 9.6. The plates are washed once with tris-buffered saline (TBS, 20 mM Tris-HCl, 150 mM NaCl, pH 7.4), and nonspecific adsorption is blocked by at least 1 h of incubation with TBS plus 1% bovine serum albumin (BSA). Following washing with TBS plus 0.1% Tween, 3000 cpm of ^125I-PDGF-BB and increasing amounts of unlabeled PDGF-BB or the peptide derivative of formula I are added to duplicate wells and incubated for 3 h at room temperature in 0.1% Tween, 1 mM CaCl2, 1 mM MgCl2 and 1% BSA. The plates are washed three times with TBS plus 0.1% Tween, and bound ligand is removed with 0.1 M citric acid, pH 2.5, prior to counting in a γ-counter.\nDirect immobilization of platelet-derived growth factor β-receptor (PDGFR-β) was performed by overnight incubation in immunosorbent 96-well plates (Nunc) at 4° C. using 100 ng of purified protein in 100 μl of 15 mM Na2CO3, 35 mM NaHCO3, pH 9.6. Plates were washed once with Tris-buffered saline (TBS, 20 mM Tris-HCL, 150 mM Na Cl, pH 7.4), and nonspecific adsorption was blocked by at least 1 h of incubation with TBS plus 1% bovine serum albumin (BSA). Following washing with TBS plus 0.1% Tween, 3000 cpm of ^125I-PDGF-BB and increasing amounts of unlabeled PDGF-BB or the peptides to be tested were added to duplicate wells and incubated for 3 h at room temperature in TBS plus 0.1% Tween, 1 mM CaCl2, 1 mM MgCl2, and 1% BSA. The plates were washed three times with TBS plus 0.1% Tween, and the bound ligand was removed with 0.1 M citric acid, pH 2.5, before counting in a γ-counter.\nThe cyclic peptides were analyzed and purified by preparative HPLC (dual-pump Pharmacia system with Waters RCM-μBondapak®-C18-cartridges, 10 μm 300 A 25×100 mm for prep. and 8×100 mm for anal., with flow rates of 8 and 2 ml/mim, respectively; UV detection at 226 and 278 nm), then MS, NMR(600 MHz,1 H) and CD. Solid-phase assays were run, as described in 2.4.", "note": "Non-standard residues stand in square brackets, D forms with d. Residues, ends and D or L forms follow the SMILES beside them.", "data": [{"smiles": "CC(C)[C@@H]1NC(=O)[C@H](Cc2ccc(O)cc2)NC(=O)[C@H](C)NC(=O)[C@@H]2CCCN2C(=O)[C@H]2CCCN2C(=O)[C@H](C)NC(=O)[C@H](Cc2ccc(O)cc2)NC(=O)[C@H](CCCCN)NC(=O)[C@H](CCCCN)NC(=O)[C@H](CCCNC(=N)N)NC1=O", "note": "[Example 20] (cyclo(PAYVRKKYA[dP]))", "values": [{"measurement": "IC50", "value": 2, "unit": "mM"}]}, {"smiles": "CC(C)[C@@H]1NC(=O)[C@H](Cc2c[nH]c3ccccc23)NC(=O)[C@H](C)NC(=O)[C@@H]2CCCN2C(=O)[C@H]2CCCN2C(=O)[C@H](C)NC(=O)[C@H](Cc2c[nH]c3ccccc23)NC(=O)[C@H](CCCCN)NC(=O)[C@H](CCCCN)NC(=O)[C@H](CCCNC(=N)N)NC1=O", "note": "[Example 21] (cyclo(PAWVRKKWA[dP]))", "values": [{"measurement": "IC50", "value": 2, "unit": "mM"}]}]}
